The test system of one test is melanotic melanoma B16. As to the kind of experiment: Melanotic Melanoma B16 test. The test is classed as in vivo, C57BC/6 mice. In short, it runs like this:
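C57BC/6 mice (10 per group) were implanted i.p. with B16 melanoma homogenate, then dosed i.p. on days 1–9 at various doses.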

In test [1] the test system is lymphocytic leukemia P388. The experiment in a line: Lymphocytic leukemia P388 test (intraperitoneal administration). The test is classed as in vivo, DBA/2 mice. The gist of the method:
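DBA/2 mice, single sex, 5-6 per group, inoculated i.p. with 10^6 P388 leukemia cells. Compounds given i.p. at various doses on days 1, 5 and 9; survival followed 30 days, reporting median survival time and treated/control (T/C) survival ratio.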

In test [2] the test system is lymphocytic leukemia P388. The experiment in a line: Lymphocytic leukemia P388 test (oral drug administration). The test is classed as in vivo, DBA/2 mice. The following applies: 60 mg./kg., administered intraperitoneally, positive control. On the procedure: The animals used are DBA/2 mice all of one sex, weighing a minimum of 17 g. and all within a 3 gram weight range. There are 5 or 6 animals per test group. The tumor transplant is by intraperitoneal injection of 0.1 ml. of dilute ascitic fluid containing 10^6 cells of lymphocytic leukemia P388. The test compounds are administered intraperitoneally on days one, 5 and 9 (relative to tumor inoculation) at various doses. The animals are weighed and survivors are recorded on a regular basis for 30 days. The median survival time and the ratio of survival time for treated (T)/control (C) animals are calculated. […] The results of this test with representative compounds of the present invention appear in Table I. The criterion for efficacy is T/C×100≥125%.
The procedure used is the same as for the previously described test for lymphocytic leukemia P388 except that the test compounds are administered orally at various doses rather than intraperitoneally. The criterion for efficacy is T/C×100≥125%.

Test [3] deals with Ridgway Osteogenic Sarcoma. As to the kind of experiment: Ridgway Osteogenic Sarcoma. Type of test: in vivo, AKD2 F1 /J mice. As to conditions: for % Inhibition Tumor Growth / % Showing 50% Tumor Regression / No. Without Tumors/No. Survivors / Tumor: 7 days after therapy stopped; for Median Survival / T/C: 63 days after therapy stopped. On the procedure:
The animals used are AKD2 F1 /J mice, all of the same sex, weighing a minimim of 17 g. and all within a three-gram weight range. There are normally 8 animals per test group. The tumor is administered subcutaneously by trocar as five 2-mm. fragments per mouse. The test compounds are administered intraperitoneally every 4 days for a total of 6 inoculations beginning on day 15 (relative to tumor inoculation) at various doses. The animals are weighed and survivors are recorded on a regular basis for 90 days. The regression of tumors is recorded in all test animals.

The mark [4] stands for this setting: Mus musculus, P388, ip, read-out: T/C × 100.

Structures are written as SMILES. “And” between values parts separate entries of the source, which are not always exact repeats. Equal values may be shown once. Where only a bound is given, the exact number is not on record here.

As for `O=c1[nH]cc(F)c(=O)[nH]1` [5-Fluorouracil, reference compound], the response vs control in vivo at 60 mg/kg in the test on melanotic melanoma B16 (Mus musculus, ip, 60 mg./kg. injection, positive control, efficacy ≥125%, read-out: T/C × 100) was 128%; in test [1] (setting [4]) it was 200%. The response vs control in vivo at 40 mg/kg in test [1] (Mus musculus, P388, ip, 40 mg./kg. injection, positive control, efficacy ≥125%, read-out: T/C × 100) is 164% and 155%. For the same molecule, the “Median Survival Time” value in test [2] was 19.0 days and 20.0 days. The “T/C × 100” value in test [2] (efficacy ≥125%) is 190% and 174%.

One may read the T/C as the result in the treated group divided by that in the control group, in per cent. `CN(Cc1cnc2nc(N)nc(N)c2n1)c1ccc(C(=O)N[C@@H](CCC(=O)O)C(=O)O)cc1` [Methotrexate]: in test [3] (6 mg./kg. i.p.), the “% Inhibition Tumor Growth” value was 36%, the “% Showing 50% Tumor Regression” value is 0%, the “No. Without Tumors/No. Survivors” value is 0/4 and the Tumor is 758 (mm.) 2. For the same molecule, the “Median Survival” value in test [3] (6 mg./kg. i.p.) stood at 46 days. In addition, in test [3] (12 mg./kg. i.p.), the “% Inhibition Tumor Growth” value is reported as 23%, the “% Showing 50% Tumor Regression” value amounted to 0%, the “No. Without Tumors/No. Survivors” value is on record as 0/5 and the Tumor was 916 (mm.) 2. In addition, in test [3] (12 mg./kg. i.p.), the “Median Survival” value is 49 days. Moreover, in test [3] (25 mg./kg. i.p.), the “% Inhibition Tumor Growth” value came to 54%, the “% Showing 50% Tumor Regression” value was 12%, the “No. Without Tumors/No. Survivors” value is 1/6 and the Tumor is 546 (mm.) 2. Also, in test [3] (25 mg./kg. i.p.), the “Median Survival” value came out at 52.5 days and the T/C came out at 118%.

Take `CC[C@]1(O)C[C@H]2CN(CCc3c([nH]c4ccccc34)[C@@](C(=O)OC)(c3cc4c(cc3OC)N(C=O)[C@H]3[C@@](O)(C(=O)OC)[C@H](OC(C)=O)[C@]5(CC)C=CCN6CC[C@]43[C@@H]65)C2)C1` [Vincristine]: in test [3] (0.5 mg./kg. i.p.), the “% Inhibition Tumor Growth” value is 93%, the “% Showing 50% Tumor Regression” value is recorded as 57%, the “No. Without Tumors/No. Survivors” value was 4/7 and the Tumor is listed as 77 (mm.) 2. In test [3] (0.5 mg./kg. i.p.), the “Median Survival” value turned out to be 83 days and the T/C is 186%. For the same molecule, in test [3] (1.0 mg./kg. i.p.), the “% Inhibition Tumor Growth” value is recorded as 100%, the “% Showing 50% Tumor Regression” value is 100%, the “No. Without Tumors/No. Survivors” value is on record as 6/6 and the Tumor was 0 (mm.) 2. In test [3] (1.0 mg./kg. i.p.), the “Median Survival” value was 85 days and the T/C is 191%. For the same molecule, in test [3] (1.5 mg./kg. i.p.), the “% Inhibition Tumor Growth” value is 100%, the “% Showing 50% Tumor Regression” value was 100%, the “No. Without Tumors/No. Survivors” value was 4/4 and the Tumor is 0 (mm.) 2. Further, in test [3] (1.5 mg./kg. i.p.), the “Median Survival” value amounted to 68 days and the T/C was 153%.

For the molecule `Cl.Cl.O=C1c2c(O)ccc(O)c2C(=O)c2c(NCCNCCO)ccc(NCCNCCO)c21` [1,4-Bis[2-(2-hydroxyethylamino)ethylamino]-5,8-dihydroxyanthraquinone Dihydrochloride], the “Median Survival Time” value in the test on melanotic melanoma B16 (0.3 mg./kg. i.p., days 1 through 9) was 34.0 days; with melanotic melanoma B16 (0.7 mg./kg. i.p., days 1 through 9), greater than 34.0 days; with melanotic melanoma B16 (1.5 mg./kg. i.p., days 1 through 9) it was greater than 34.0 days; with melanotic melanoma B16 (3 mg./kg. i.p., days 1 through 9), greater than 28.5 days; in the test with melanotic melanoma B16 (6 mg./kg. i.p., days 1 through 9), 15.0 days; in the test on melanotic melanoma B16 (12 mg./kg. i.p., days 1 through 9), 11.0 days. Besides, the “Median Survival Time” value in test [1] (0.04 mg./kg. i.p., days 1, 5 and 9) was 20.0 days; in test [1] (0.09 mg./kg. i.p., days 1, 5 and 9) it was 21.0 days; in test [1] (0.19 mg./kg. i.p., days 1, 5 and 9), 25.0 days; in test [1] (0.39 mg./kg. i.p., days 1, 5 and 9) it was 27.0 days; in test [1] (0.78 mg./kg. i.p., days 1, 5 and 9), greater than 29.0 days; in test [1] (1.5 mg./kg. i.p., days 1, 5 and 9), greater than 29.0 days. For the same molecule, the “Median Survival Time” value in test [1] (3.1 mg./kg. i.p., days 1, 5 and 9) came to 22.0 days; in test [1] (6.2 mg./kg. i.p., days 1, 5 and 9), 20.0 days; in test [1] (12.5 mg./kg. i.p., days 1, 5 and 9), 13.0 days. Moreover, the response vs control in vivo at 6 mg/kg in the test with melanotic melanoma B16 (Mus musculus, ip, read-out: T/C × 100) was 100%. Also, the response vs control in vivo at 0.3 mg/kg in the test with melanotic melanoma B16 (Mus musculus, ip, 0.3 mg./kg. i.p., days 1 through 9, efficacy ≥125%, read-out: T/C × 100) turned out to be 227%. The response vs control in vivo at 0.7 mg/kg with melanotic melanoma B16 (Mus musculus, ip, 0.7 mg./kg. i.p., days 1 through 9, efficacy ≥125%, read-out: T/C × 100) is greater than 227%. The response vs control in vivo at 1.5 mg/kg in the test on melanotic melanoma B16 (Mus musculus, ip, 1.5 mg./kg. i.p., days 1 through 9, efficacy ≥125%, read-out: T/C × 100) was greater than 227%; in test [1] (Mus musculus, P388, ip, 1.5 mg./kg. i.p., days 1, 5 and 9, efficacy ≥125%, read-out: T/C × 100), greater than 290%. Further, in the test with melanotic melanoma B16 (Mus musculus, ip, 3 mg./kg. i.p., days 1 through 9, efficacy ≥125%, read-out: T/C × 100), the response vs control in vivo at 3 mg/kg was greater than 190%. For the same molecule, the response vs control in vivo at 12 mg/kg with melanotic melanoma B16 (Mus musculus, ip, 12 mg./kg. i.p., days 1 through 9, efficacy ≥125%, read-out: T/C × 100) amounted to 73%. The response vs control in vivo at 0.04 mg/kg in test [1] (setting [4]) amounted to 200%. For the same molecule, the response vs control in vivo at 0.19 mg/kg in test [1] (setting [4]) turned out to be 250%. Further, in test [1] (setting [4]), the response vs control in vivo at 6.2 mg/kg stood at 200%. For the same molecule, the response vs control in vivo at 0.09 mg/kg in test [1] (Mus musculus, P388, ip, 0.09 mg./kg. i.p., days 1, 5 and 9, efficacy ≥125%, read-out: T/C × 100) amounted to 210%. Also, the response vs control in vivo at 0.39 mg/kg in test [1] (Mus musculus, P388, ip, 0.39 mg./kg. i.p., days 1, 5 and 9, efficacy ≥125%, read-out: T/C × 100) worked out at 270%. In addition, the response vs control in vivo at 0.78 mg/kg in test [1] (Mus musculus, P388, ip, 0.78 mg./kg. i.p., days 1, 5 and 9, efficacy ≥125%, read-out: T/C × 100) was greater than 290%. Further, the response vs control in vivo at 3.1 mg/kg in test [1] (Mus musculus, P388, ip, 3.1 mg./kg. i.p., days 1, 5 and 9, efficacy ≥125%, read-out: T/C × 100) was found to be 220%. In addition, in test [1] (Mus musculus, P388, ip, 12.5 mg./kg. i.p., days 1, 5 and 9, efficacy ≥125%, read-out: T/C × 100), the response vs control in vivo at 12.5 mg/kg was determined as 130%.

Consider `CCN(CC)CCNC1=C2C(=O)c3c(O)ccc(O)c3C(=O)C2=C(NCCN(CC)CC)CC1` [Leuco-1,4-bis[(2-diethylaminoethyl)amino]-5,8-dihydroxyanthraquinone], for which the “Median Survival Time” value turned out to be 23.0 days in the test with melanotic melanoma B16 (50 mg./kg. i.p., days 1 through 9); 12.0 days in test [1] (12 mg./kg. i.p., days 1, 5 and 9); 13.0 days in test [1] (25 mg./kg. i.p., days 1, 5 and 9); 15.0 days in test [1] (50 mg./kg. i.p., days 1, 5 and 9); 17.0 days in test [1] (100 mg./kg. i.p., days 1, 5 and 9); 17.0 days in test [1] (200 mg./kg. i.p., days 1, 5 and 9). In addition, the response vs control in vivo at 50 mg/kg in the test with melanotic melanoma B16 (Mus musculus, ip, 50 mg./kg. i.p., days 1 through 9, efficacy ≥125%, read-out: T/C × 100) stood at 139%; in test [1] (Mus musculus, P388, ip, 50 mg./kg. i.p., days 1, 5 and 9, efficacy ≥125%, read-out: T/C × 100), 158%. Besides, in test [1] (Mus musculus, P388, ip, 12 mg./kg. i.p., days 1, 5 and 9, efficacy ≥125%, read-out: T/C × 100), the response vs control in vivo at 12 mg/kg turned out to be 126%. Also, the response vs control in vivo at 25 mg/kg in test [1] (Mus musculus, P388, ip, 25 mg./kg. i.p., days 1, 5 and 9, efficacy ≥125%, read-out: T/C × 100) was 137%. The response vs control in vivo at 100 mg/kg in test [1] (Mus musculus, P388, ip, 100 mg./kg. i.p., days 1, 5 and 9, efficacy ≥125%, read-out: T/C × 100) amounted to 179%. The response vs control in vivo at 200 mg/kg in test [1] (Mus musculus, P388, ip, 200 mg./kg. i.p., days 1, 5 and 9, efficacy ≥125%, read-out: T/C × 100) worked out at 179%.

Source of the values: patent US4526989A, “1,4-Bis (substituted-amino)-5,8-dihydroxy-anthraquinones and leuco bases thereof” (priority 1979, dated 1985).
